This note sets out measurements from patent US20030176511A1, “Compositions and methods for treating cardiovascular disorders” (priority 2000, published 2003).

A value given as a limit tells only on which side of the number the result lay.

Test [1] deals with aortic lipoprotein lipid peroxidation. Kind of test: Aqueous and lipophilic parameters of apoE−/−;LDLr−/− mouse aortae. It is filed as in vivo, mice. The protocol: Pooled aortas from 7-8 mice obtained from control or bisphenol-treated mice were homogenized, the lipid extracted and subjected to HPLC with post-column chemiluminescence detection for analysis of cholesteryl ester hydroperoxides (CE-OOH). Chromatograms correspond to aortas of age-matched control (a or b) or drug-treated mice with low or high plasma levels of bisphenol (c and d, respectively). Under the conditions used, CE-OOH eluted between 8 and 9.5 min. The chemiluminescence negative peaks between 4 and 5.5 min correspond to the elution of tocopherols.
Male apoE−/−;LDLr−/− mice (59 total), were maintained on standard R3 chow from weaning to 8 weeks of age (young controls, n=9). […]
Analyses of oxidised and non-oxidised lipids were carried out by RP-HPLC as described in Example 1 except that in some instances UV234 nm rather than post-column chemiluminescence detection was used to measure C18:2-OOH and the corresponding hydroxides (together referred to as CE-O(O)H) which show similar retention times under these chromatographic conditions. α-TQ, α-TOH, α-tocotrienol, D-isosascorbate and ascorbate were determined by HPLC with electrochemical detection. For oxidation of plasma, unesterified cholesterol (which remained non-oxidised in these experiments) was employed as internal standard for all polyunsaturated, lipid-soluble components analysed. […]

The test system of test [2] is plasma lipid peroxidation. Kind of test: Ex vivo peroxyl radical (AAPH)-induced lipid peroxidation of plasma from apoE−/−;LDLr−/− mice. The test is classed as in vivo. The note with it: pooled plasma of bisphenol-treated mice, 5 mM AAPH, 37° C. As for the experimental part:
Pooled plasma obtained from at least 3 mice receiving control diet (circles) or diet supplemented with bisphenol (squares) were treated with 5 mM AAPH and incubated at 37° C. At the times indicted aliquots were removed and analysed for α-TOH (A) and CE-O(O)H (B). 100% α-TOH levels correspond to 28±3 and 20±2 μM for control and H 212/43 plasma, respectively. Data represents the mean±SD (n=4 independent experiments).
Oxidation of plasma, pooled from=3 mice was carried out by addition of the peroxyl radical generator (final concentrations 5 mM) and incubating the reaction mixture at 37° C. under air. Aliquots (50 μL) of the reaction mixture were removed, extracted in methanol/hexane (1:5, v/v), and the consumption of antioxidants and accumulation of lipid oxidation products determined.
Analyses of oxidised and non-oxidised lipids were carried out by RP-HPLC as described in Example 1 except that in some instances UV234 nm rather than post-column chemiluminescence detection was used to measure C18:2-OOH and the corresponding hydroxides (together referred to as CE-O(O)H) which show similar retention times under these chromatographic conditions. α-TQ, α-TOH, α-tocotrienol, D-isosascorbate and ascorbate were determined by HPLC with electrochemical detection. […] All compounds were quantified by peak area comparison with authentic standards. […]

For test [3], the system named is atherosclerosis in apoE−/−;LDLr−/− mice. Kind of test: Atherosclerosis (intima volume, descending thoracic aorta) in apoE−/−;LDLr−/− mice. To be noted: bisphenol for 14 weeks, compared with age-matched controls. The test is classed as in vivo. As for the experimental part: Lesion formation was assessed by changes to intima volume when compared with young and age-matched controls receiving standard chow for 8 and 22 weeks, respectively. *Denotes a statistically significant difference with α<0.025 (Wilcoxon test).
Aortic lesions were assessed in segments centered around the third pair of intercostal artery branches in the descending thoracic aorta. Briefly, the fixed aortas were dehydrated in ethanol, cleared with xylene and embedded in paraffin. Serial sections (10 in total; each 2-3 μm thick and 100 μm apart) were cut and stained using Weigerts hematoxylin-van Gieson. Aortic thickening was assessed as the total volume of intima in the segment investigated in bisphenol-treated versus control samples.
Aortic volumes were determined by planimetry, using a Lucivid device (MicroBrightField, Colchester, Vermont, […]) attached to a Leitz DRM microscope that allowed the superposition of a computer monitor onto the cross sectional image.

The test system of test [4] is tocopherol-mediated peroxidation (TMP). Kind of test: Anti-TMP index. The test is classed as biochemical.
The next test concerns α-tocopheroxyl radical. Kind of test: Tocopheroxyl radical attenuating ability (TRAA). The test is classed as biochemical. To be noted: kobs in presence (+) or absence (−) of test compound.

For the compound `CC(C)(C)c1cc(-c2cc(C(C)(C)C)c(O)c(C(C)(C)C)c2)cc(C(C)(C)C)c1O` [Bisphenol], the “level of oxidised lipids in aortas, fold lower than control” value in test [1] (drug-treated animals with high plasma levels of bisphenol) was found to be 1000 fold. For the same compound, in test [1] (drug-treated animals with low plasma levels of bisphenol), the “level of oxidised lipids in aortas, fold lower than control” value is given as 10 fold. Besides, in test [2], the “CE-OOH detected after 12 h of oxidation” value is less than 1 µM and the “α-TOH after 12 h of oxidation” value is “remained unaltered”. Besides, in test [3], the “lesion size (intimal volume, descending thoracic aorta)” value is on record as “substantially decreased the lesion size”. Further, the Anti-TMP index in test [4] came out at 3.2. For the same compound, in the test on α-tocopheroxyl radical, the “TRAA (decay of α-tocopheroxyl radical; kobs(+)/kobs(−))” value is “Immediate decay”.
